Data published in ChEMBL document CHEMBL5215004, “Meroantarctines A-C, Meroterpenoids with Rearranged Skeletons from the Alga-Derived Fungus Penicillium antarcticum KMM 4685 with Potent p-Glycoprotein Inhibitory Activity” (J Nat Prod, 2022).
Values belong to the molecule of their own block, whether it stands above or below them. Active and inactive are the calls of the source. The calls are words filed in the database; no cut-off is given here.

Assays:
PC-3 [1] = assay: Cytotoxicity against docetaxel-resistant human PC-3 cells assessed as reduction in cell viability at 0.5 to 64 uM pretreated with tariquidar for 1 hrs followed by compound addition and measured after 48 hrs by MTT assay; format: functional, cell-based; conditions: dose 0.5-64 µM
PC-3 [2] = assay: Synergistic cytotoxicity against docetaxel-resistant human PC-3 cells assessed as reduction in cell viability at 12.5 to 100 uM incubated for 48 hrs in the presence of docetaxel by MTT assay; format: functional, cell-based; conditions: dose 12.5-100 µM
RWPE-1 = assay: Cytotoxicity against human RWPE-1 cells assessed as reduction in cell viability at <= 100 uM incubated for 48 hrs by MTT assay; format: toxicity, cell-based; conditions: rwpe-1, 48 h
[3] = biological target: ATP-dependent translocase ABCB1 (Homo sapiens, UniProt P08183); assay: Inhibition of p-glycoprotein in docetaxel-resistant human PC-3 cells assessed as inhibition of calcein excretion at 0.39 to 50 uM incubated for 30 mins by fluorescence based plate reader analysis; format: cell-based; conditions: pc-3, 0.5 h, dose 0.39-50 µM
Sequence of ATP-dependent translocase ABCB1 (P08183 whole entry): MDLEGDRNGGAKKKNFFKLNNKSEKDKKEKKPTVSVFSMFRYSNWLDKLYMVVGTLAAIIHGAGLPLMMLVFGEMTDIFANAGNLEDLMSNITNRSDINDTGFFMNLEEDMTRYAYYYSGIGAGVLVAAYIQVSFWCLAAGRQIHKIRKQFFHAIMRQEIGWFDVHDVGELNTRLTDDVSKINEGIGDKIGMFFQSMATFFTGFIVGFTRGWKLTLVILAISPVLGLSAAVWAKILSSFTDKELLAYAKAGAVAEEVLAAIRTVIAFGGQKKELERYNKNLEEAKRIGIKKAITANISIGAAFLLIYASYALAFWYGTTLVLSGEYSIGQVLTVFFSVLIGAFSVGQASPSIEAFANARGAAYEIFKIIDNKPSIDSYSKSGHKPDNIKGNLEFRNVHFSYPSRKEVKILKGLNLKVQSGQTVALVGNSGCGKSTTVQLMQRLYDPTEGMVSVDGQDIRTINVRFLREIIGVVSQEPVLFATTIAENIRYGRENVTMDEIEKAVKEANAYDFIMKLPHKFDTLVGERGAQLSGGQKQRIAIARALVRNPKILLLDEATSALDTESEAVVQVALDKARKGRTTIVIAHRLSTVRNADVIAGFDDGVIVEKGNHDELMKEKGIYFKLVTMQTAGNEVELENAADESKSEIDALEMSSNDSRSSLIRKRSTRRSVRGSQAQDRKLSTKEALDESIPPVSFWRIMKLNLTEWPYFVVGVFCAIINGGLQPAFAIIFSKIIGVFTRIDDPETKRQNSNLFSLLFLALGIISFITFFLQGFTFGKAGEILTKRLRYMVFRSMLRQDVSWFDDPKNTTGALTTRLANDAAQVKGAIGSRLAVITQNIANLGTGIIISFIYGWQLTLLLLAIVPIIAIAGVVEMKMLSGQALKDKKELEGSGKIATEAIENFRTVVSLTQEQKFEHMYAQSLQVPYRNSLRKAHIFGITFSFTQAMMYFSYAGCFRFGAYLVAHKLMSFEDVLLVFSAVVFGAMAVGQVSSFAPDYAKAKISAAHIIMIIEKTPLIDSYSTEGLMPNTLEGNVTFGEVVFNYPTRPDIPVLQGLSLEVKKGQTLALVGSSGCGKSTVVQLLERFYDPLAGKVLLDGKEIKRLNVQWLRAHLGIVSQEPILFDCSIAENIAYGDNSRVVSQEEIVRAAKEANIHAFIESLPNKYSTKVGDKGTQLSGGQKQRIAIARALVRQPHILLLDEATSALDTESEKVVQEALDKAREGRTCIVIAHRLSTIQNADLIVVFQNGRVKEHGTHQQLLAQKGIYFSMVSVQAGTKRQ

PNT2 = assay: Cytotoxicity against human PNT2 cells assessed as reduction in cell viability at <= 100 uM incubated for 48 hrs by MTT assay; format: toxicity, cell-based; conditions: pnt2, 48 h

SMILES: CC(=O)O[C@@]12CO[C@@H]1C[C@H](O)[C@@]1(C)C(=O)[C@H](O)C3=C(C)[C@@H](OC(=O)[C@H](O)[C@@H](NC(=O)OC(C)(C)C)c4ccccc4)C[C@@](O)([C@@H](OC(=O)c4ccccc4)[C@H]21)C3(C)C
Activity (PC-3 [1]): Active

SMILES: C=C1C=C2[C@]34CC[C@H](OC(C)=O)C(C)(C)[C@H]3[C@H](C[C@]2(C)[C@]2(C(=O)OC)C(=O)[C@](C)(O)C(=O)[C@]12C)OC4=O
Activity (PC-3 [2]): Active | Activity (RWPE-1): Non-Toxic | inhibition (INH) [3]: Active | Activity (PNT2): Non-Toxic

SMILES: COC(=O)[C@@]1(C(=O)C(C)=O)C(C)=C(C)C=C2[C@]34CC[C@H](OC(C)=O)C(C)(C)[C@H]3[C@H](C[C@@]21C)OC4=O
Activity (PC-3 [2]): Active | Activity (RWPE-1): Non-Toxic | inhibition (INH) [3]: Active | Activity (PNT2): Non-Toxic

Further lines, with some results ahead:

inhibition (INH) [3]: Active
SMILES: COC(=O)[C@H]1C(=O)O[C@]2(/C=C(\C)C(C)=O)[C@]34CC[C@H](OC(C)=O)C(C)(C)[C@H]3[C@H](C[C@]12C)OC4=O
Activity (PC-3 [2]): Active | Activity (RWPE-1): Non-Toxic | Activity (PNT2): Non-Toxic

inhibition (INH) [3]: Active
SMILES: COC(=O)[C@@]12C(=O)C(=O)O[C@@]3(C=C1C)[C@]2(C)C[C@@H]1OC(=O)[C@]32CC[C@H](OC(C)=O)C(C)(C)[C@@H]12
Activity (PC-3 [2]): Active | Activity (RWPE-1): Non-Toxic | Activity (PNT2): Non-Toxic
